Experiments:
Ixodes scapularis = assay: In vitro contact activity against adult ticks (coated vial), I. scapularis; conditions: for mortality at 0.006 µM: Trial 1, dose 0.006 μM; for mortality at 0.024 µM: Trial 1, dose 0.024 μM; for mortality at 0.098 µM: Trial 1, dose 0.098 μM; for mortality at 0.39 µM: Trial 1, dose 0.39 μM; for mortality at 1.56 µM: Trial 1, dose 1.56 μM; for mortality at 6.25 µM: Trial 1, dose 6.25 μM; for mortality at 25 µM: Trial 1, dose 25 μM; for mortality at 100 µM: Trial 1, dose 100 μM
Description: (§1) Rhipicephalus sanguineus, Dermacentor variabilis, Amblyomma americanum, (Ecto Services, Inc., Henderson, N.C.) and Ixodes scapularis (Oklahoma State University, Stillwater, Okla.) aged between 2-4 weeks post molt were held in an environmental chamber at 24° C., 80% humidity with 12-hour light/dark cycles.
(§2) For tick assays, vial caps were pre-drilled with a single hole in the center of each cap to allow air exchange. A filter paper (Whatman Grade 540 2.1 cm) was placed in the lid of each vial. An aliquot from each compound stock was added to an acetone/triton solution to achieve the desired top doses for the study. Serial dilutions were conducted from the top dose (i.e. 100 ppm) to achieve the desired titration range for EC50 and EC90 determination. For R. sanguineus, D. variabilis, and A. americanum, the final DMSO concentration in each test vial was 0.5%. For I. scapularis, compounds were solubilized directly in an acetone/triton solution due to I. scapularis' sensitivity to DMSO. A 459 μL aliquot of each compound formulation was transferred to a vial containing a Whatman Grade 540 2.1 cm filter paper. Vials were immediately placed on an unheated roller unit to allow for an even coating of the vial walls. After vials were coated, 41 μL of each compound formulation was added to the filter paper embedded in each vial cap. Each cap was allowed to dry. The vials were loosely capped and allowed to dry for a minimum of four hours in a chemical fume hood.
(§3) Compounds tested were: the C1 racemate, C1 (R) enantiomer, and the C1 (S) enantiomer. For Trial 3, the C1 (R) enantiomer and the C1 (S) enantiomer were further chiral purified to achieve >99% purity.
(§4) Ten adult ticks were added to each vial and held at 24° C., 80% humidity with 12-hour light/dark cycles. Adult ticks were assessed for percent mortality at various time points between 2 hours and 48 hours post infestation. Ticks were stimulated on a heated roller unit and evaluated. Ticks showing no movement, or very slow and uncoordinated movement were noted as dead.

Rhipicephalus sanguineus = assay: In vitro contact activity against adult ticks (coated vial), R. sanguineus; conditions: for mortality at 0.006 µM: Trial 3, dose 0.006 μM; for mortality at 0.024 µM: Trial 3, dose 0.024 μM; for mortality at 0.098 µM: Trial 3, dose 0.098 μM; for mortality at 0.39 µM: Trial 3, dose 0.39 μM; for mortality at 1.56 µM: Trial 3, dose 1.56 μM; for mortality at 6.25 µM: Trial 3, dose 6.25 μM; for mortality at 25 µM: Trial 3, dose 25 μM; for mortality at 100 µM: Trial 3, dose 100 μM
Description: as §1, §2, §3, §4

Question: Which results are given for O=C(CC(F)(F)F)N1CC2(C1)OCc1cc(C3=NS[C@](c4cc(Cl)c(F)c(Cl)c4)(C(F)(F)F)C3)ccc12 [C1 (R) enantiomer, (R)-1-[6-[5-(3,5-dichloro-4-fluoro-phenyl)-5-(trifluoromethyl)-4H-isothiazol-3-yl]spiro[1H-isobenzofuran-3,3′-azetidine]-1′-yl]-3,3,3-trifluoro-propan-1-one]?
Answer: mortality at 0.006 µM (Ixodes scapularis; 2 h, Rep1): 0%; mortality at 0.006 µM (Ixodes scapularis; 2 h, Rep2): 0%; mortality at 0.024 µM (Ixodes scapularis; 2 h, Rep1): 0%; mortality at 0.024 µM (Ixodes scapularis; 2 h, Rep2): 0%; mortality at 0.098 µM (Ixodes scapularis; 2 h, Rep1): 0%; mortality at 0.098 µM (Ixodes scapularis; 2 h, Rep2): 0%; mortality at 0.39 µM (Ixodes scapularis; 2 h, Rep1): 0%; mortality at 0.39 µM (Ixodes scapularis; 2 h, Rep2): 0%; mortality at 1.56 µM (Ixodes scapularis; 2 h, Rep1): 0%; mortality at 1.56 µM (Ixodes scapularis; 2 h, Rep2): 0%; mortality at 6.25 µM (Ixodes scapularis; 2 h, Rep1): 0%; mortality at 6.25 µM (Ixodes scapularis; 2 h, Rep2): 0%; mortality at 25 µM (Ixodes scapularis; 2 h, Rep1): 0%; mortality at 25 µM (Ixodes scapularis; 2 h, Rep2): 0%; mortality at 100 µM (Ixodes scapularis; 2 h, Rep1): 0%; mortality at 100 µM (Ixodes scapularis; 2 h, Rep2): 0%; mortality at 0.006 µM (Ixodes scapularis; 6 h, Rep1): 0%; mortality at 0.006 µM (Ixodes scapularis; 6 h, Rep2): 0%; mortality at 0.024 µM (Ixodes scapularis; 6 h, Rep1): 0%; mortality at 0.024 µM (Ixodes scapularis; 6 h, Rep2): 0%; mortality at 0.098 µM (Ixodes scapularis; 6 h, Rep1): 0%; mortality at 0.098 µM (Ixodes scapularis; 6 h, Rep2): 0%; mortality at 0.39 µM (Ixodes scapularis; 6 h, Rep1): 0%; mortality at 0.39 µM (Ixodes scapularis; 6 h, Rep2): 0%; mortality at 1.56 µM (Ixodes scapularis; 6 h, Rep1): 0%; mortality at 1.56 µM (Ixodes scapularis; 6 h, Rep2): 0%; mortality at 6.25 µM (Ixodes scapularis; 6 h, Rep1): 0%; mortality at 6.25 µM (Ixodes scapularis; 6 h, Rep2): 0%; mortality at 25 µM (Ixodes scapularis; 6 h, Rep1): 0%; mortality at 25 µM (Ixodes scapularis; 6 h, Rep2): 0%; mortality at 100 µM (Ixodes scapularis; 6 h, Rep1): 0%; mortality at 100 µM (Ixodes scapularis; 6 h, Rep2): 0%; mortality at 0.006 µM (Ixodes scapularis; 12 h, Rep1): 0%; mortality at 0.006 µM (Ixodes scapularis; 12 h, Rep2): 0%; mortality at 0.024 µM (Ixodes scapularis; 12 h, Rep1): 0%; mortality at 0.024 µM (Ixodes scapularis; 12 h, Rep2): 0%; mortality at 0.098 µM (Ixodes scapularis; 12 h, Rep1): 0%; mortality at 0.098 µM (Ixodes scapularis; 12 h, Rep2): 0%; mortality at 0.39 µM (Ixodes scapularis; 12 h, Rep1): 0%; mortality at 0.39 µM (Ixodes scapularis; 12 h, Rep2): 0%; mortality at 1.56 µM (Ixodes scapularis; 12 h, Rep1): 0%; mortality at 1.56 µM (Ixodes scapularis; 12 h, Rep2): 0%; mortality at 6.25 µM (Ixodes scapularis; 12 h, Rep1): 0%; mortality at 6.25 µM (Ixodes scapularis; 12 h, Rep2): 0%; mortality at 25 µM (Ixodes scapularis; 12 h, Rep1): 0%; mortality at 25 µM (Ixodes scapularis; 12 h, Rep2): 0%; mortality at 100 µM (Ixodes scapularis; 12 h, Rep1): 0%; mortality at 100 µM (Ixodes scapularis; 12 h, Rep2): 0%; mortality at 0.006 µM (Ixodes scapularis; 24 h, Rep1): 0%; mortality at 0.006 µM (Ixodes scapularis; 24 h, Rep2): 0%; mortality at 0.024 µM (Ixodes scapularis; 24 h, Rep1): 0%; mortality at 0.024 µM (Ixodes scapularis; 24 h, Rep2): 0%; mortality at 0.098 µM (Ixodes scapularis; 24 h, Rep1): 0%; mortality at 0.098 µM (Ixodes scapularis; 24 h, Rep2): 0%; mortality at 0.39 µM (Ixodes scapularis; 24 h, Rep1): 0%; mortality at 0.39 µM (Ixodes scapularis; 24 h, Rep2): 0%; mortality at 1.56 µM (Ixodes scapularis; 24 h, Rep1): 0%; mortality at 1.56 µM (Ixodes scapularis; 24 h, Rep2): 0%; mortality at 6.25 µM (Ixodes scapularis; 24 h, Rep1): 0%; mortality at 6.25 µM (Ixodes scapularis; 24 h, Rep2): 0%; mortality at 25 µM (Ixodes scapularis; 24 h, Rep1): 0%; mortality at 25 µM (Ixodes scapularis; 24 h, Rep2): 0%; mortality at 100 µM (Ixodes scapularis; 24 h, Rep1): 20%; mortality at 100 µM (Ixodes scapularis; 24 h, Rep2): 0%; mortality at 0.006 µM (Ixodes scapularis; 48 h, Rep1): 0%; mortality at 0.006 µM (Ixodes scapularis; 48 h, Rep2): 0%; mortality at 0.024 µM (Ixodes scapularis; 48 h, Rep1): 0%; mortality at 0.024 µM (Ixodes scapularis; 48 h, Rep2): 0%; mortality at 0.098 µM (Ixodes scapularis; 48 h, Rep1): 0%; mortality at 0.098 µM (Ixodes scapularis; 48 h, Rep2): 0%; mortality at 0.39 µM (Ixodes scapularis; 48 h, Rep1): 0%; mortality at 0.39 µM (Ixodes scapularis; 48 h, Rep2): 0%; mortality at 1.56 µM (Ixodes scapularis; 48 h, Rep1): 0%; mortality at 1.56 µM (Ixodes scapularis; 48 h, Rep2): 0%; mortality at 6.25 µM (Ixodes scapularis; 48 h, Rep1): 0%; mortality at 6.25 µM (Ixodes scapularis; 48 h, Rep2): 0%; mortality at 25 µM (Ixodes scapularis; 48 h, Rep1): 10%; mortality at 25 µM (Ixodes scapularis; 48 h, Rep2): 30%; mortality at 100 µM (Ixodes scapularis; 48 h, Rep1): 50%; mortality at 100 µM (Ixodes scapularis; 48 h, Rep2): 30%; mortality at 0.006 µM (Rhipicephalus sanguineus; 2 h, Rep1): 0%; mortality at 0.006 µM (Rhipicephalus sanguineus; 2 h, Rep2): 0%; mortality at 0.024 µM (Rhipicephalus sanguineus; 2 h, Rep1): 0%; mortality at 0.024 µM (Rhipicephalus sanguineus; 2 h, Rep2): 0%; mortality at 0.098 µM (Rhipicephalus sanguineus; 2 h, Rep1): 0%; mortality at 0.098 µM (Rhipicephalus sanguineus; 2 h, Rep2): 0%; mortality at 0.39 µM (Rhipicephalus sanguineus; 2 h, Rep1): 0%; mortality at 0.39 µM (Rhipicephalus sanguineus; 2 h, Rep2): 0%; mortality at 1.56 µM (Rhipicephalus sanguineus; 2 h, Rep1): 0%; mortality at 1.56 µM (Rhipicephalus sanguineus; 2 h, Rep2): 0%; mortality at 6.25 µM (Rhipicephalus sanguineus; 2 h, Rep1): 0%; mortality at 6.25 µM (Rhipicephalus sanguineus; 2 h, Rep2): 0%; mortality at 25 µM (Rhipicephalus sanguineus; 2 h, Rep1): 0%; mortality at 25 µM (Rhipicephalus sanguineus; 2 h, Rep2): 0%; mortality at 100 µM (Rhipicephalus sanguineus; 2 h, Rep1): 0%; mortality at 100 µM (Rhipicephalus sanguineus; 2 h, Rep2): 0%; mortality at 0.006 µM (Rhipicephalus sanguineus; 6 h, Rep1): 0%; mortality at 0.006 µM (Rhipicephalus sanguineus; 6 h, Rep2): 0%; mortality at 0.024 µM (Rhipicephalus sanguineus; 6 h, Rep1): 0%; mortality at 0.024 µM (Rhipicephalus sanguineus; 6 h, Rep2): 0%; mortality at 0.098 µM (Rhipicephalus sanguineus; 6 h, Rep1): 0%; mortality at 0.098 µM (Rhipicephalus sanguineus; 6 h, Rep2): 0%; mortality at 0.39 µM (Rhipicephalus sanguineus; 6 h, Rep1): 0%; mortality at 0.39 µM (Rhipicephalus sanguineus; 6 h, Rep2): 0%; mortality at 1.56 µM (Rhipicephalus sanguineus; 6 h, Rep1): 0%; mortality at 1.56 µM (Rhipicephalus sanguineus; 6 h, Rep2): 0%; mortality at 6.25 µM (Rhipicephalus sanguineus; 6 h, Rep1): 0%; mortality at 6.25 µM (Rhipicephalus sanguineus; 6 h, Rep2): 0%; mortality at 25 µM (Rhipicephalus sanguineus; 6 h, Rep1): 0%; mortality at 25 µM (Rhipicephalus sanguineus; 6 h, Rep2): 0%; mortality at 100 µM (Rhipicephalus sanguineus; 6 h, Rep1): 0%; mortality at 100 µM (Rhipicephalus sanguineus; 6 h, Rep2): 0%; mortality at 0.006 µM (Rhipicephalus sanguineus; 12 h, Rep1): 0%; mortality at 0.006 µM (Rhipicephalus sanguineus; 12 h, Rep2): 0%; mortality at 0.024 µM (Rhipicephalus sanguineus; 12 h, Rep1): 0%; mortality at 0.024 µM (Rhipicephalus sanguineus; 12 h, Rep2): 0%; mortality at 0.098 µM (Rhipicephalus sanguineus; 12 h, Rep1): 0%; mortality at 0.098 µM (Rhipicephalus sanguineus; 12 h, Rep2): 0%; mortality at 0.39 µM (Rhipicephalus sanguineus; 12 h, Rep1): 0%; mortality at 0.39 µM (Rhipicephalus sanguineus; 12 h, Rep2): 0%; mortality at 1.56 µM (Rhipicephalus sanguineus; 12 h, Rep1): 0%; mortality at 1.56 µM (Rhipicephalus sanguineus; 12 h, Rep2): 0%; mortality at 6.25 µM (Rhipicephalus sanguineus; 12 h, Rep1): 0%; mortality at 6.25 µM (Rhipicephalus sanguineus; 12 h, Rep2): 0%; mortality at 25 µM (Rhipicephalus sanguineus; 12 h, Rep1): 0%; mortality at 25 µM (Rhipicephalus sanguineus; 12 h, Rep2): 0%; mortality at 100 µM (Rhipicephalus sanguineus; 12 h, Rep1): 0%; mortality at 100 µM (Rhipicephalus sanguineus; 12 h, Rep2): 0%

— US10807992B2, “Single enantiomer antiparasitic compounds” (priority 2017, dated 2020)
